# System: Mcl-1, PARP cleavage in HL-60, MOLT-4, K562
# Assay: Western blot, leukemia cell lines in vitro
# Assay type: cell-based, human
# Settings: most prominent with 6 and 24 h exposure
# Method: Primary leukemia cells for in vitro studies were isolated from BM or PB obtained from AML or ALL patients enrolled on a separate University of Maryland, Baltimore, IRB-approved protocol for tissue collection and not treated on this clinical study. The cells were isolated by gradient centrifugation using LSM (Mediatech) according to the manufacturer’s protocol. Cells were used either fresh or after viable freezing (FBS/10 % DMSO). Primary leukemia cells were cultured in RPMI 1640 (Invitrogen, Grand Island, NY, USA) supplemented with 15 % heat-inactivated FBS (HyClone Laboratories Inc., Red Bank, NJ, USA) and 200 mM L-Glutamine (Invitrogen). […]
# For Western blot analysis, leukemia cell pellets (primary leukemia cells, HL-60, MOLT-4, K562) were washed with PBS and lysed with RIPA buffer (Sigma-Aldrich, St. Louis, MO, USA) supplemented with Complete Mini™ protease inhibitor and PHOStop™ phosphatase inhibitors (Roche). […] Blots were washed three times, and the signal was detected with Amersham™ ECL™ detection systems (GE Healthcare, Pittsburgh, PA, USA). […] The Western blot signals were measured by densitometry using ImageJ 1.45I software (NIH, Bethesda, USA).
structure (smiles),measurement,value
CCc1cnn2c(NCc3ccc[n+]([O-])c3)cc(N3CCCC[C@H]3CCO)nc12 [Dinaciclib],Mcl-1 expression and PARP cleavage,down-regulates the expression of the anti-apoptotic protein Mcl-1 independently of caspases and induces PARP cleavage
